The term EC50 denotes the concentration at which the effect is half-maximal.

Consider 3 compounds from US6653338B2 (Applied Research Systems ARS Holding N.A., priority 1998, dated 2003).

The target in test [1] is T1, recombinant FSH receptor stably transfected and expressed in Chinese Hamster Ovary cells (Homo sapiens, UniProt P23945).
T1 construct: expressed in transfected cells; host or cells: Chinese Hamster Ovary (CHO) cells, stably transfected, with CRE-luciferase reporter
T1 sequence (P23945 18-695): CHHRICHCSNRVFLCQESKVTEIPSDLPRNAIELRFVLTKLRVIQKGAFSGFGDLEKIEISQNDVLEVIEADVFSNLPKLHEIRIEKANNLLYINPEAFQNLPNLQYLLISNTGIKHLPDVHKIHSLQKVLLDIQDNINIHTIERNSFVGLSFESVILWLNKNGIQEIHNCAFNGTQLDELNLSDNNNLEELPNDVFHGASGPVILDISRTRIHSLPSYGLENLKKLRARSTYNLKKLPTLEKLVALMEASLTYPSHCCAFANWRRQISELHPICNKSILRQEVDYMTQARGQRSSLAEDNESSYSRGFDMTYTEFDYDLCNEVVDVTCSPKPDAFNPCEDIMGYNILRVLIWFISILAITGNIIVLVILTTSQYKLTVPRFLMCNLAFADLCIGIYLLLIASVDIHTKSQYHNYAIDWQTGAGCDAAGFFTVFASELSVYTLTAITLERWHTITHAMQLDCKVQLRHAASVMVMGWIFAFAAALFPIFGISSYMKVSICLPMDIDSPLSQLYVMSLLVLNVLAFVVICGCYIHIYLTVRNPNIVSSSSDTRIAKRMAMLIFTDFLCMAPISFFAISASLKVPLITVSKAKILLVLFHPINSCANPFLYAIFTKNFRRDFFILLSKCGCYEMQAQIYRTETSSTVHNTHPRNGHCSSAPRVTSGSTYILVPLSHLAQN
The experiment in a line: FSH assay: CHO luciferase FSHR (CRE-luciferase reporter, LDR curves). The following applies: FIG. 6, from the graph; duplicate samples; luciferase luminescence in CHO FSHR cells. In kind it is cell-based. On the technique in general: In a reporter assay the amount or activity of a reporter protein is the signal.
Source text: Compounds were screened for agonist activity at the FSH receptor using the recombinant FSH receptor stably transfected and expressed in Chinese Hamster Ovary cells (CHO cells) essentially as described in the work by Kelton, et al. (Molecular and Cellular Endocrinology, 1992, 89, 141-151). […] An agonist at the FSH receptor increases cAMP in the cell, which results in activation of CREB (cAMP response element binding protein). This molecule interacts with the CRE element upstream of the gene and results in increased transcription of the genes downstream of the element. The substrate for luciferase (Packard Instrument Company, Meriden, Conn., U.S.A.) was added to the cells after appropriate incubation with the compounds of the invention or FSH (used as a positive control). The amount of luciferase expressed was measured by quantitating the luminescence produced by the enzyme using a TopCount scintillation/luminescence counter running in single photon counting mode. A compound that acts as an agonist at the receptor should produce light from the treated cells in proportion to its concentration within the incubation. Luminescence should be saturable at high concentrations of the compound.
The compounds of the invention, in deepwell plates (Master plates) were loaded on the robotic deck along with the appropriate number of assay plates and daughter plates. A 10 μl aliquot from each master plate was transferred to the corresponding daughter plate and 90 μl of DME/F12 was added and mixed within each well. 20 μl was then removed from the daughter plate and dispensed into the assay plate. […] 100 μl of Luclite (prepared as described by the manufacturer) was added to each well and the plate was shaken gently for 40 s prior to placement in the Topcount plate reader. After allowing 3.5 min for the plate to dark-adapt within the machine, the amount of luminescence generated was quantitated using Single Photon Counting mode. […]

The test system of test [2] is primary rat granulosa cells. The experiment in a line: primary rat granulosa cell bioassay (estradiol production by RIA). It counts as cell-based. The note with it: FIG. 7; for estradiol production versus dose: concentrations between 200 nM and 5 μM, decrease in production above this concentration; for EC50: Rattus norvegicus, estradiol in cell supernatants by RIA, read-out: EC50 of stimulated estradiol production. As to the method: In this in vitro assay, conversion of androstendione to estrogen by granulosa cells in the presence of FSH was measured for compounds XVI and XVII. For comparison, FSH was also tested in the assay.
Cells were plated at 5000, 8000, 10,000 and 20,000 cells/ well/ 200 μl of GAB medium on poly-D-lysine-coated 96-well tissue culture plates. Plates were incubated at 37° C. in a 5% CO2/95% air incubator for 3 days. Cultures were washed prior to stimulation with FSH or LH. 50 μl of 4 X concentrations of rhFSH, rhLH or forskolin was added to the cultures. To define the range of the dose response curve the rhFSH was diluted so that the final concentration on the cells was between 10^−7 to 10^−15 M with three doses per log at 1, 2 and 5. Forskolin was diluted so that the final concentration on the cells was 1 μM. Cells were incubated @ 37° C. in 5% CO2. Three days later, cell supernatants were collected and diluted 1:100 in GAB medium for measurement of estradiol by RIA. The RIA was performed according to manufacturer's directions except that an estradiol standard was prepared in absolute ethanol at 100 ng/mL and then further diluted in GAB medium, instead of kit buffer. The concentration of hormone was plotted on the X-axis against the amount of estradiol produced by the cells on the Y-axis using Origin graphics software.
Results of the assay using media only are also shown.

For the compound `CCCCCc1ccc(C(=O)N2CCCCC2C(=O)Nc2ccc3c(c2)c2ccccc2n3CC)c(=O)o1` (stereo not shown) [compound XVII, 1-[(2-Oxo-6-pentyl-2H-pyran)-3-carbonyl]piperidine-2-carboxylic acid-3-(9-ethylcarbazolyl)amide], the EC50 in test [1] worked out at 0.0039 µM. Further, in test [2], the “estradiol production versus dose” value is reported as “increasing estradiol production with increasing dose” and the EC50 is 1.2 µM.

Take `CCCCCc1ccc(C(=O)N2CCCC2C(=O)Nc2ccc3c(c2)c2ccccc2n3CC)c(=O)o1` (stereo not shown) [compound XVI, 1-[(2-Oxo-6-pentyl-2H-pyran)-3-carbonyl]pyrrolidine-2-carboxylic acid-3-(9-ethylcarbazolyl)amide]: the EC50 in test [1] is 0.0388 µM. Further, in test [2], the “estradiol production versus dose” value is recorded as “increasing estradiol production with increasing dose” and the EC50 worked out at 1.4 µM.

`CCCCCc1ccc(C(=O)N2CC(O)CC2C(=O)Nc2ccc3c(c2)c2ccccc2n3CC)c(=O)o1` (stereo not shown) [compound XIX, 1-[(2-Oxo-6-pentyl-2H-pyran)-3-carbonyl]-4-hydroxypyrrolidine2-carboxylic acid-3-(9-ethylcarbazolyl)amide]: in test [1], the EC50 came out at 1.12 µM.
